Laboratory results published in a melting point compilation (Tetko et al.; mined from patent text by program, amines drawn as free bases though some values may be those of a salt).

Work on `O=C(Nc1ccc(CN2CCOCC2)cc1)C1=Cc2cc(-c3ccccc3)ccc2CC1` yielded a melting point of 186 to 187 °C. Work on `COc1cn(-c2ccc(N3CC4(CC4)OC3=O)cc2F)nc(-c2ccnn2-c2ccccc2)c1=O` yielded a melting point of 200 to 201 °C. Work on `CC(C)Cc1ccc(C(C)C(=O)NCCCCn2cnc3c(N)nc4ccccc4c32)cc1` (stereo unspecified) yielded a melting point of 172 to 173 °C. With `CCCC(=O)c1cc(C(=O)C(=O)OC(=O)C(=O)c2cc(C(=O)CCC)c(C)cc2N)c(N)cc1C` the melting point was 224 to 226 °C. Work on `O=C(NO)C(CC(=O)N1CCOCC1)NS(=O)(=O)c1ccc(-c2ccc(Cl)cc2)cc1` (stereo unspecified) yielded a melting point of 139 to 141 °C. With `CCc1nc(NC(C)C)c([N+](=O)[O-])c(SC2CCCCC2)n1` the melting point was 69 to 71 °C. In the case of `CCOC(=O)c1ccc(C=C(C)C=O)o1`, the melting point is reported as 83 °C. Compound `Fc1cc(F)cc(-c2nc(-c3ccccn3)no2)c1` has a melting point of 115 to 119 °C. `Cc1cc(Cl)cc(C(=O)Nc2cccc(Cl)n2)n1` showed a melting point of 176 °C. Work on `COc1ccc2c(c1OC)CCOC2CCl` (stereo unspecified) yielded a melting point of 63 to 65 °C. Work on `CC(C)(C)OC(=O)NC(Cc1ccccc1)C(O)CNCC(O)C(Cc1ccccc1)NC(=O)OC(C)(C)CCCNCc1ccccc1` (stereo unspecified) yielded a melting point of 128 to 132 °C. Work on `COc1c(CC(C(=O)O)C(=O)O)cccc1C(=O)c1ccc(Cl)cc1` yielded a melting point of 142 °C. `O=C(O)CC1=CSCSC1` gave a melting point of 97 °C. Work on `O=C(O)c1cccn2cc(-c3ccccc3)nc12` yielded a melting point of 226 °C. In the case of `Cc1cccc(OCc2cccc(OCc3ccc4ccccc4n3)c2)c1C(=O)O`, the melting point is reported as 154 to 156 °C. With `CCOCc1nc2c(N)nc3cc(-c4ccsc4)ccc3c2n1CC(C)C` the melting point was 187 to 189 °C. With `CCOC(=O)c1cn(-c2cnsn2)c2c(F)c(F)c(F)cc2c1=O` the melting point was 167 to 169 °C. `COc1ccc(N2CCN(c3c(C)c4c(c(OC)c3C)OC(C)C4)CC2)cc1` (stereo unspecified) showed a melting point of 109 to 111 °C. Work on `CC(=O)OC1CC(n2cc(C=CBr)c(=O)[nH]c2=O)OC1C(O)F` (stereo unspecified) yielded a melting point of 81 °C. Compound `NC(=S)C(CN1CCOCC1)c1ccccn1` (stereo unspecified) has a melting point of 102 to 104 °C. `CCCCn1nc(-c2cc(C(C)(C)C)c(O)c(C(C)(C)C)c2)c2cccnc21` showed a melting point of 94 to 96 °C. With `Cc1ccc(S(=O)(=O)N2CCC(c3ccc(O)cc3O)CC2)cc1` the melting point was 206 to 207 °C. For `CN(C(=O)C(C)(C)c1cc(C(C)(C)C)c(O)c(C(C)(C)C)c1)C1CC(C)(C)NC(C)(C)C1`, the melting point was 168 to 173 °C. Work on `O=C(O)CCCCCCc1cc(-c2ccccc2)c2ccccc2n1` yielded a melting point of 39 °C. Work on `O=S1(=O)NC2CCCN2c2c(F)cc(O)cc21` (stereo unspecified) yielded a melting point of 167 to 169 °C. `CS(=O)C1(c2ccncc2)CNN=C1c1ccc(F)cc1` (stereo unspecified) showed a melting point of 263 °C. Work on `Cc1nn(Cc2ccc(Cl)cc2)c(C)c1CC(=O)O` yielded a melting point of 173 to 174 °C. For `CC(=O)Nc1cccc2c1CCN(C)C2`, the melting point was 138 to 139 °C. For `COc1ccc(-c2cc(=O)n(CC(C)C)nc2-c2ccc(OC)c(F)c2)cc1F`, the melting point was 154 °C. `N#CC=C1c2ccccc2C=Cc2ccccc21` gave a melting point of 137 to 138 °C. `CCNC(=O)c1cccc(C2(c3ccc(OC(F)(F)F)cc3)N=C(N)N3CCCN=C32)c1` (stereo unspecified) gave a melting point of 129 to 136 °C. With `CC(CN(C)C)N1c2ccccc2Sc2ccc(C(=O)NCc3ccccc3F)cc21` (racemic) the melting point was 130 °C. `Cn1cc(C(N)=O)c(-c2ccc([N+](=O)[O-])o2)n1` gave a melting point of 251 to 252 °C. `Cc1cccc(-n2nc(C)cc2-c2ccnc(NCc3ccccc3)c2)c1` showed a melting point of 73 to 75 °C. For `CC(C)(CO)NC(=O)c1n[nH]cc1NC(=O)c1ccccn1`, the melting point was 193 to 195 °C. With `CN1CCN(c2ccc(I)nn2)CC1` the melting point was 149 °C. `O=C1CCC(N2Cc3c(OCc4ccc(CNCCO)cc4)cccc3C2=O)C(=O)N1` (stereo unspecified) showed a melting point of 251 to 253 °C. `CCC(CC)(Cc1ccc(Cl)cc1)C(O)c1cccnc1` (stereo unspecified) showed a melting point of 128 to 129 °C. For `CS(=O)(=O)N1CCCn2c(nc3c(N)nc4cc(OCc5ccccc5)ccc4c32)C1`, the melting point was 235 to 236 °C. Work on `CSc1ccc(NS(=O)(=O)c2ccc(C)cc2)c([N+](=O)[O-])c1` yielded a melting point of 116 to 117 °C. Work on `O=C(O)Cc1nn(Cc2ccc(Br)cc2F)c2ccccc12` yielded a melting point of 167 to 168 °C. `O=S(=O)(Nc1cc(Cl)c(Cl)cc1Cl)C(F)(F)F` showed a melting point of 104 to 106 °C. For `Cc1cc(C)c(S(=O)(=O)On2nnc3ccccc32)c(C)c1`, the melting point was 128 to 130 °C. `OCc1ccc(-c2cccnc2)o1` gave a melting point of 119 to 120 °C. `Cc1ncoc1-c1nc(-c2c(F)cccc2F)nn1C` showed a melting point of 113 to 115 °C. `CCOC(=O)C(=O)Nc1c([N+](=O)[O-])cc(C#N)c2ccccc12` gave a melting point of 178 °C. `COC(=O)Nc1ccc(-c2ncn(-c3ccc(OC(F)(F)C(F)(F)F)cc3)n2)cc1` gave a melting point of 183 to 184 °C. `CN1CCCC1CCNC(=O)Cn1c(-c2ccc(Cl)cc2)nc2cccnc21` (stereo unspecified) gave a melting point of 170 to 172 °C. Compound `CCCCCCC(=O)Nc1c(Sc2cc(C)cc(C)c2)c(C)c[nH]c1=O` has a melting point of 212 to 213 °C. In the case of `CSc1ccc2c(=O)c(OS(C)(=O)=O)cn(C)c2c1`, the melting point is reported as 182 °C. `C=CCc1cc2ccc(=O)oc2c(OC)c1OC(C)=O` gave a melting point of 101 to 102 °C. Work on `COc1ccc(S(=O)(=O)Nc2ccc(F)cc2NC(=O)c2ccccc2)cc1` yielded a melting point of 153 to 154 °C. Work on `COc1ccc(C(NCC(C)c2ccccc2)c2cccc(Nc3c(N)c(=O)c3=O)c2)cc1` (stereo unspecified) yielded a melting point of 192 to 194 °C. Compound `O=C1NC(=O)C2(CCCCC2)N1c1ccc(I)cc1` has a melting point of 249 to 251 °C. Work on `COC(=O)CC(=O)Cc1cc(F)c(F)cc1F` yielded a melting point of 37 to 39 °C. With `CC(=O)Nc1ccc(O[C@H]2CCN(C)C[C@H]2c2ccccc2)cc1` (relative stereo) the melting point was 174 to 176 °C. Work on `Cc1cc(NNC(=O)OC(C)(C)C)c([N+](=O)[O-])c(N(Cc2ccccc2)Cc2ccccc2)n1` yielded a melting point of 60 to 67 °C. `O=Cc1ccc2c(c1)CCC2` gave a melting point of 85 to 86 °C. With `CC1(O)CCN(C(=O)c2cc(-c3cnc4[nH]cc(C(=O)C5(C)CCCCC5)c4n3)cs2)CC1` the melting point was 257 to 259 °C. Compound `NCCc1ccc(C(N)=O)s1` has a melting point of 134 to 136 °C. `Clc1ccc(-c2ccc(OCCCBr)cc2)cc1` gave a melting point of 103 to 105 °C. In the case of `CN(CCCNc1ncc(Cc2ccc(Br)cc2)c(=O)[nH]1)c1ccccn1`, the melting point is reported as 178 to 179 °C. For `OC1COc2ccccc2C1` (stereo unspecified), the melting point was 188 to 193 °C. Compound `O=c1c2c(CBr)c(-c3ccc([N+](=O)[O-])cc3)sc2n(Cc2c(F)cccc2F)c(=O)n1-c1ccccc1` has a melting point of 228 to 229 °C. Work on `CCCOc1cc2c(cc1OCCC)CCC(C(=O)N1CCN(C(=O)c3cc(OC)c(OC)c(OC)c3)CC1)=C2` yielded a melting point of 124 to 126 °C. In the case of `O=C(Nc1ccc2c(c1)C(F)(F)C(F)(F)O2)N1CC(c2ccccc2)=C(c2ccc(OC(F)F)cc2)N1`, the melting point is reported as 155 to 159 °C. Compound `CC(C)(C)OC(=O)/C(=C/C1CCCCC1)C(=O)c1ccccc1O` has a melting point of 62 to 65 °C. Work on `CN(Cc1ccc(C2=NCCN2)cc1)C(=O)OCc1ccccc1` yielded a melting point of 84 °C. In the case of `O=C(Nc1ccccc1)NN1CCc2[nH]c(=O)n3nc(-c4ccccc4F)nc3c2C1`, the melting point is reported as 291 to 293 °C. For `OC(COc1ccc(-c2ccc(Br)cc2)cc1)CN1CCCC1` (stereo unspecified), the melting point was 121 to 122 °C. In the case of `Oc1cc(O)c2c(c1)Oc1cc(Br)ccc1CC2`, the melting point is reported as 178 to 180 °C. With `COc1ccc(CS(=O)(=O)CC(=O)O)cc1[N+](=O)[O-]` the melting point was 96 to 98 °C. For `CCOC1CC2(C)C(CCC3C2C(=O)CC2(C)C3CCC23OCCO3)CC1O` (stereo unspecified), the melting point was 142 to 145 °C. With `FCC(F)(F)Sc1nc(-c2ccccc2)c(-c2ccccc2)[nH]1` the melting point was 225 to 226 °C. Compound `O=C(CCCS(=O)c1ccccc1)NO` (stereo unspecified) has a melting point of 61 to 62 °C. With `O=C(CC(=O)c1ccccc1O)c1cc(O)c(O)c([N+](=O)[O-])c1` the melting point was 251 to 252 °C. For `CC(C)(OCc1cc2nc(Cl)ccc2n1S(=O)(=O)c1ccc2c(c1)CCO2)C(=O)O`, the melting point was 169 °C. With `CC(C)c1ccc(N(Cc2cnn(Cc3cccs3)c2)C(=O)C2CCCc3c(O)cccc32)cn1` (stereo unspecified) the melting point was 125 to 129 °C. In the case of `O=C(O)c1cc(-c2ccccc2F)ns1`, the melting point is reported as 191 to 192 °C. Work on `Cc1ccc(-c2nc(COc3ccc(CCCn4ccnc4)cc3)cs2)s1` yielded a melting point of 78 to 79 °C. Work on `O=C(NCCCCc1cccnc1)c1ccc(-c2cccc(O)c2)cc1` yielded a melting point of 150 to 152 °C. `N#Cc1ccccc1CCc1n[nH]c2c1c(=O)n(-c1ccccc1)c1ncccc21` gave a melting point of 316 °C. `CCOCc1nc2c(N)nc(C)c(C)c2n1CCOCC#Cc1ccccc1` showed a melting point of 129 to 130 °C. `COc1ccc(CC(=O)Nc2cccc3c2C(=O)c2c-3n[nH]c2-c2ccc(OC)cc2)cc1` gave a melting point of 280 °C. `CC(=O)N1CCN(C(=O)C2(C#N)Nc3cc(C)c(-c4ccccc4)c(N4CC[C@H](N(C)C)C4)c3O2)CC1` (stereo partly specified) showed a melting point of 102 to 105 °C. `CCCCCC(C(=O)c1ccccc1)C(=O)c1ccccc1` gave a melting point of 68.5 to 69.5 °C. `CCCn1ccc(=O)c(OC(=O)NCC(=O)OCC)c1C` gave a melting point of 96 to 97 °C. With `CON=Cc1ccccc1OCc1ccccc1C(=NOC)C(=O)OC` the melting point was 73 to 76 °C. With `Cc1ccc(N)c2nccc(Cl)c12` the melting point was 104 to 107 °C. Compound `Cc1c(-c2ccccc2)c(Cl)nc2ccccc12` has a melting point of 88 to 90 °C. `CN(C)/C=C/C(=O)c1ccc(OCCCCN2C(=O)c3ccccc3C2=O)cc1` showed a melting point of 109 to 111 °C. `O=C(O)CCC(=NOCc1ccc(OCc2cn3c(Cl)cccc3n2)cc1)c1ccccc1` gave a melting point of 160 to 161 °C. In the case of `CCc1ccc(/C=C/c2cc(OC)c(OC)c(OC)c2)cc1`, the melting point is reported as 98 to 100 °C. `Nc1ccccc1N1CCN(CCCCn2c(=O)[nH]c(=O)c3ccccc32)CC1` showed a melting point of 121 °C. Work on `CC(N=Cc1ccc(O)cc1)c1ccc([N+](=O)[O-])cc1` (single isomer, unassigned; (-)) yielded a melting point of 118 to 120 °C. `COc1ccc(-c2sc3cc(OC)ccc3c2C(=O)c2c(OC)cccc2OC)cc1` gave a melting point of 146 to 152 °C. `Cn1ncc(C(=O)NC2CC2)c1Cl` showed a melting point of 105 to 107 °C. In the case of `C=CCOc1cc(C(=O)O)cc([N+](=O)[O-])c1C(=O)c1ccccc1`, the melting point is reported as 192 to 193 °C. `COCCNC(=O)c1ccnc(-c2ccc3c(c2)C(c2ccc(Cl)cc2Cl)CC3)c1` (stereo unspecified) showed a melting point of 154 to 155 °C. `CCOC(=O)C[C@@H](NC(=O)/C=C/S(=O)(=O)c1ccccc1)C(=O)OCC` gave a melting point of 112 to 115 °C. In the case of `CCC(O)c1cc2c(=O)n(NS(C)(=O)=O)c(=O)[nH]c2cc1C(F)(F)F` (stereo unspecified), the melting point is reported as 219 to 222 °C.
